According to US8410152B2 (Max-Planck-Gesellschaft zur Forderung der Wissenschaften e. …, priority 2006, dated 2013):

Columns and labels:
tau construct K19 = tau construct K19 (Homo sapiens, UniProt P10636); assay: Thioflavine S (ThS) assay for aggregation of tau; format: biochemical; conditions: 10 μM tau construct K19, 2.5 μM heparin, ThS fluorescence; for DC50: read-out: DC50; for IC50: over night at 37° C., read-out: ID50 (the source's name)
Experimental: Thioflavine S (ThS) Assay for aggregation of tau: 10 μM of the tau construct K19 were incubated with compounds in a concentration range from 1 nM up to 200 μM in the presence of 2.5 μM heparin in 50 mM NH4Ac buffer over night at 37° C. After addition of 20 μM ThS the signal was measured at 521 nm (emission) at an excitation wavelength of 440 nm. The results of this assay are presented in the IC50 column and DC50 column of Table 1 below.

N2a/K18ΔK280 cells = assay: Tau aggregation and inhibition assay in cells (ThS staining); format: cell-based; conditions: N2a/K18ΔK280 cells, 5 days; for inhibition at 10 µM: 120 h, compound 10 μM with doxycyclin, ThS-positive cells scored, read-out: Inhibition in cells
Experimental: Selection of an N2a, Tet-On, G418-resistant cell line: N2a cells were cotransfected with both the pUHD172-1 plasmid (encoding the rtTA, obtained from H. Bujard, Heidelberg) and pEU-1 plasmid (encoding G418 resistance, a derivative of pRc/CMV, Invitrogen) (ratio 20:1; 1 μg/well of 6-well plates) using the DOTAP transfection reagent (Roche, Basel, CH). The cells were cultured in Eagle's Minimum Essential Medium (MEM) supplemented with 10% defined fetal bovine serum and subjected to G418 (600 μg/ml) and selection. The cells were fed with fresh media every 4 days for 3-4 weeks when single colonies appeared. Clones were tested for the induction level by transient transfection of pUHG 16-3 plasmid and the induction of β-galactosidase was measured.
Generation of inducible Tet-On cell lines: The DNA fragments encoding the appropriate tau constructs (K18WT, K18ΔK280, K18/ΔK280/PP) were inserted into the bidirectional vector pBI-5 between ClaI and SalI restriction sites (pBI-5 is an unpublished derivative of pBI-2, Baron et al., 1995). The pBI-5/K18-derived plasmids with pX343 (plasmid encoding the hygromycin resistance) were used for cotransfection of N2a/Tet-On, G418-resistant cells with the aid of DOTAP (20:1 plasmid ratio; 1 μg/well of 6-well plates). The cells were seeded at 4×10^5 cells per well. On the following day cells were transferred to 100-mm dishes and selected with 100 μg/ml of hygromycin and 600 μg/ml of G418. Clonal cell lines were screened for the inducible expression of K18 derivatives by measuring luciferase activity with the luciferase assay and immunofluorescence for tau protein with the polyclonal pan-tau antibody K9JA.
Induction of K18-derivatives in Tet-On N2a cells: The inducible N2a/K18-derivatives cells were cultured in MEM medium supplemented with 10% fetal calf serum, 2 mM glutamine and 0.1% nonessential amino acids. The expression of K18 constructs was induced by adding 1 μg doxycyclin (Dox) per 1 ml medium. The induction was continued for 7-11 days, the medium was changed 3 times (always complemented with doxycyclin). For tau solubility assays the cells were collected by pelleting during centrifugation at 1000×g for 5 min. The levels and solubility of tau K18/ΔK280 were determined following Greenberg and Davies (1990). The cells were homogenized (DIAX900, Heidolph, Schwabach, Germany) in 10 vol (w/v) of buffer consisting of 10 mM Tris-HCl (pH 7.4), 0.8 M NaCl, 1 mM EGTA, and 10% sucrose. The homogenate was spun for 20 min at 20000×g, and the supernatant was retained. The pellet was re-homogenized in 5 vol of homogenization buffer and re-centrifuged. Both supernatants were combined, brought to 1% N-laurylsarkosinate (w/v) and incubated for 1 hr at room temperature while shaking, followed by centrifugation at 100 000×g for 1 hr. The sarkosyl-insoluble pellets were resuspended in 50 mM Tris-HCl (pH 7.4), 0.5 ml per 1 g of starting material. The supernatant and sarkosyl-insoluble pellet samples were analyzed by Western blotting. The amount of material loaded for supernatant and sarkosyl-insoluble pellet represented about 0.5% and 15% of the total material present in the supernatant and pellet respectively (the ratio between supernatant and sarkosyl insoluble pellet was always 1:30). For quantification of tau levels in each fraction, the Western blots were probed with pan-tau antibody K9JA and analyzed by densitometry (LAS 3000 and AIDA software, Raytest, Straubenhardt, Germany).
Quantitation of tau aggregation in cells by Thioflavin S (ThS) staining: Tet-On inducible undifferentiated N2a cells were treated with 1 μg/ml doxycyclin for 5, 7 or 9 days in a culture dish. After that the cells were trypsinized and transferred to coverslips and incubated overnight. The cells on the coverslips were fixed with 4% paraformaldehyde in PBS for 15 min, then permeabilized with 80% MeOH for 6 min at −20° C., and incubated with 0.1% Thioflavin S for 5 min and washed three times in ethanol (50%). […]

uninduced N2A cells = format: cell-based; conditions: cell death as percent of LDH released into medium vs total LDH, compound 10 μM
How it was run: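 Compound at 10 μM final was added to uninduced N2A cells. LDH activity was read at 492 nm. Cell death was expressed as percent LDH released into medium relative to total LDH after full cell lysis.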

tau construct K18 = tau construct K18 (Homo sapiens, UniProt P10636); assay: STD-NMR determination of dissociation constant; format: binding; conditions: STD-NMR titration data for proton I, 10 μM soluble K18, PBS/D2O, 295 K; read-out: KD of K18-BSc3094 complex
Experimental: STD-NMR: All STD NMR experiments were made in 3 mm Match® tubes in a 700 MHz spectrometer with cryogenic probe head at 295 K. The quantity of protein was kept small by the small diameter of the sample tubes. The spectra were measured with a spectral width of 11.0208 ppm and 32k data points with application of the WATERGATE water suppression (w5-sequence). The suppression of the protein resonances was reached by a spin lock pulse with a length of 15 ms and a attenuation of 11 dB. We used a pulse program in which the presaturation was accomplished alternating after each scan for the on and off resonance experiment at the selected frequencies. Thus artefacts are prevented during the difference formation due to in homogeneities. As point of irradiation for the on resonance experiments we selected 540 Hz (0.77 ppm). As point of irradiating for the off resonance experiments 40,000 Hz (57.1 ppm) was selected. The saturation duration in all experiments was 4 seconds, the attenuation of the saturation power 45 dB. 2044 scans were collected per experiment. After phase correction the FID was multiplied by an exponential function to improve the signal to noise ratio, which caused a line broadening of 1 Hz.
For the determination of the dissociation constant a sample with 10 μM soluble K18 and 80 μM DTT-d6 in 200 μL PBS/D2O was prepared. […]

Sequence of tau construct K19 (P10636 with tags, fused parts or gaps isoform P10636-2 limits assumed): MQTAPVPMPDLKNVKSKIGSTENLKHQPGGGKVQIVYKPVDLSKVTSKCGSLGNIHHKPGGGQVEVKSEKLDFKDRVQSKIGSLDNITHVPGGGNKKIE
Sequence of tau construct K18 (P10636 with tags, fused parts or gaps isoform P10636-8 limits assumed): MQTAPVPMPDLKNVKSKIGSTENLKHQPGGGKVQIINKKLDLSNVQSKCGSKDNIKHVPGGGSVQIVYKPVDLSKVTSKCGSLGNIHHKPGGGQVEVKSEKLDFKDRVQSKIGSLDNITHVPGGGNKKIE

In the case of `O=C(NNc1nc(-c2ccc([N+](=O)[O-])cc2)cs1)c1ccc2[nH]cnc2c1` [Comp. 8, N′-[4-(4-Nitrophenyl)-1,3-thiazol-2-yl]-1H-benzimidazole-5-carbohydrazide], the DC50 (tau construct K19) is reported as 0.7 µM, the IC50 (tau construct K19) is reported as 1.6 µM and the inhibition at 10 µM (N2a/K18ΔK280 cells) is reported as 82.2%. It also gave an LDH (uninduced N2A cells) of 5.2% and a Kd (tau construct K18) of 62 ± 12 µM.

`O=C(NNc1nc2c(s1)Cc1ccccc1-2)c1ccc(C(F)(F)F)cc1` [Comp. 66, N′-8H-indeno[1,2-d][1,3]thiazol-2-yl-4-(trifluoromethyl)benzohydrazide] showed a DC50 (tau construct K19) of 2.7 µM, an IC50 (tau construct K19) of 4.1 µM and an inhibition at 10 µM (N2a/K18ΔK280 cells) of 53.9%. For the same compound, the LDH (uninduced N2A cells) was −4.6%.

For `N#Cc1ccc(-c2csc(NNC(=O)c3cccc(F)c3)n2)cc1` [Comp. 67, N′-[4-(4-cyanophenyl)-1,3-thiazol-2-yl]-3-fluorobenzohydrazide], the DC50 (tau construct K19) was 28.7 µM, the IC50 (tau construct K19) was 19.7 µM and the “Inhibition in cells (result in words: cytotoxicity)” value (N2a/K18ΔK280 cells; compound 10 μM) was “Cytotoxic at 5 d”. It also gave an LDH (uninduced N2A cells) of 19.8%.

With `O=C(NNc1nc(-c2ccc(Cl)cc2)cs1)C1CCCCC1` [Comp. 68, N′-[4-(4-chlorophenyl)-1,3-thiazol-2-yl]cyclohexanecarbohydrazide] the DC50 (tau construct K19) was 162 µM, the IC50 (tau construct K19) was 69.1 µM and the inhibition at 10 µM (N2a/K18ΔK280 cells) was 46.4%. For the same compound, the LDH (uninduced N2A cells) was −2.8%.
